# Laboratory results as given in ChEMBL document CHEMBL1201862, “PubChem BioAssay data set” (2004).
#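 Briefly, cells in 96-well plates were exposed to five compound concentrations for 48 h, and endpoints were estimated by linear interpolation. Abbreviation: GI50, concentration required for 50% inhibition of growth.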 Active and inactive are the calls of the source. No stated cut-off is given here; in the data, active = GI50 up to about 1.1 µM and inactive = higher.
# Experiments:
# Assay in all cases: DTP human tumour cell line panel, 48 h
# [1] = test system: 786-0
# [2] = test system: A498
# [3] = test system: A549
# [4] = test system: ACHN
# [5] = test system: BT-549
# [6] = test system: CAKI-1
# [7] = test system: CCRF-CEM
# [8] = test system: COLO 205
# [9] = test system: DU-145
# [10] = test system: EKVX
# [11] = test system: HCT-116
# [12] = test system: HCT-15
# [13] = test system: HL-60
# [14] = test system: HOP-62
# [15] = test system: HOP-92
# [16] = test system: HT-29
# [17] = test system: Hs-578T
# [18] = test system: IGROV-1
# [19] = test system: K562
# [20] = test system: KM12
# [21] = test system: LOX IMVI
# [22] = test system: M14
# [23] = test system: MCF7
# [24] = test system: MDA-MB-231
# [25] = test system: MDA-MB-435
# [26] = test system: MDA-N
# [27] = test system: MOLT-4
# [28] = test system: Malme-3M
# [29] = test system: NCI-H226
# [30] = test system: NCI-H23
# [31] = test system: NCI-H460
# [32] = test system: NCI-H522
# [33] = test system: NCI/ADR-RES
# [34] = test system: OVCAR-3
# [35] = test system: OVCAR-4
# [36] = test system: OVCAR-5
# [37] = test system: OVCAR-8
# [38] = test system: PC-3
# [39] = test system: RPMI-8226
# [40] = test system: RXF 393
# [41] = test system: SF-268
# [42] = test system: SF-295
# [43] = test system: SF-539
# [44] = test system: SK-MEL-28
# [45] = test system: SK-MEL-2
# [46] = test system: SK-MEL-5
# [47] = test system: SK-OV-3
# [48] = test system: SN12C
# [49] = test system: SNB-19
# [50] = test system: SNB-75
# [51] = test system: SR
# [52] = test system: SW-620
# [53] = test system: T47D
# [54] = test system: TK-10
# [55] = test system: U-251
# [56] = test system: UACC-62
# [57] = test system: UO-31
# [58] = test system: HCC 2998
# [59] = test system: UACC-257
structure (smiles),measurement,setting,value
CNS(=O)(=O)c1ccccc1C(=N)c1ccccc1,GI50,[1],> 100 µM (inactive)
same,GI50,[2],> 100 µM (inactive)
same,GI50,[3],> 100 µM (inactive)
same,GI50,[4],> 100 µM (inactive)
same,GI50,[5],> 100 µM (inactive)
same,GI50,[6],> 100 µM (inactive)
same,GI50,[7],> 100 µM (inactive)
same,GI50,[8],> 100 µM (inactive)
same,GI50,[9],> 100 µM (inactive)
same,GI50,[10],> 100 µM (inactive)
same,GI50,[11],> 100 µM (inactive)
same,GI50,[12],> 100 µM
same,GI50,[13],> 100 µM (inactive)
same,GI50,[14],> 100 µM (inactive)
same,GI50,[15],> 100 µM (inactive)
same,GI50,[16],> 100 µM (inactive)
same,GI50,[17],> 100 µM (inactive)
same,GI50,[18],> 100 µM (inactive)
same,GI50,[19],> 100 µM (inactive)
same,GI50,[20],> 100 µM (inactive)
same,GI50,[21],> 100 µM (inactive)
same,GI50,[22],> 100 µM (inactive)
same,GI50,[23],> 100 µM (inactive)
same,GI50,[24],> 100 µM (inactive)
same,GI50,[25],> 100 µM (inactive)
same,GI50,[26],> 100 µM (inactive)
same,GI50,[27],> 100 µM (inactive)
same,GI50,[28],> 100 µM (inactive)
same,GI50,[29],> 100 µM (inactive)
same,GI50,[30],> 100 µM (inactive)
same,GI50,[31],> 100 µM (inactive)
same,GI50,[32],> 100 µM (inactive)
same,GI50,[33],> 100 µM (inactive)
same,GI50,[34],> 100 µM (inactive)
same,GI50,[35],> 100 µM (inactive)
same,GI50,[36],> 100 µM (inactive)
same,GI50,[37],> 100 µM (inactive)
same,GI50,[38],> 100 µM (inactive)
same,GI50,[39],> 100 µM (inactive)
same,GI50,[40],> 100 µM (inactive)
same,GI50,[41],> 100 µM (inactive)
same,GI50,[42],> 100 µM (inactive)
same,GI50,[43],> 100 µM (inactive)
same,GI50,[44],> 100 µM (inactive)
same,GI50,[45],> 100 µM (inactive)
same,GI50,[46],> 100 µM (inactive)
same,GI50,[47],> 100 µM (inactive)
same,GI50,[48],> 100 µM (inactive)
same,GI50,[49],> 100 µM (inactive)
same,GI50,[50],56.4 µM (inactive)
same,GI50,[51],> 100 µM (inactive)
same,GI50,[52],> 100 µM (inactive)
same,GI50,[53],> 100 µM (inactive)
same,GI50,[54],> 100 µM (inactive)
same,GI50,[55],> 100 µM (inactive)
same,GI50,[56],> 100 µM (inactive)
same,GI50,[57],> 100 µM (inactive)
O=C(c1ccco1)N(Cc1ccco1)C(=S)Nc1ccccc1,GI50,[1],6.3 µM (inactive)
same,GI50,[3],29.7 µM (inactive)
same,GI50,[4],19.5 µM (inactive)
same,GI50,[5],17.2 µM (inactive)
same,GI50,[6],7.08 µM (inactive)
same,GI50,[7],3.79 µM (inactive)
same,GI50,[8],12.9 µM (inactive)
same,GI50,[9],33.2 µM (inactive)
same,GI50,[10],45.9 µM (inactive)
same,GI50,[58],33.1 µM (inactive)
same,GI50,[11],6.37 µM (inactive)
same,GI50,[12],9.2 µM
same,GI50,[13],1.79 µM (inactive)
same,GI50,[14],36.6 µM (inactive)
same,GI50,[15],7.53 µM (inactive)
same,GI50,[16],8.71 µM (inactive)
same,GI50,[17],19.3 µM (inactive)
same,GI50,[18],16.1 µM (inactive)
same,GI50,[19],3.33 µM (inactive)
same,GI50,[20],8.2 µM (inactive)
same,GI50,[21],7.21 µM (inactive)
same,GI50,[22],12 µM (inactive)
same,GI50,[23],4.2 µM (inactive)
same,GI50,[24],13.3 µM (inactive)
same,GI50,[25],10.6 µM (inactive)
same,GI50,[26],10.5 µM (inactive)
same,GI50,[27],7.08 µM (inactive)
same,GI50,[28],14.7 µM (inactive)
same,GI50,[29],66.8 µM (inactive)
same,GI50,[30],13.5 µM (inactive)
same,GI50,[31],49.1 µM (inactive)
same,GI50,[32],16.9 µM (inactive)
same,GI50,[33],21.9 µM (inactive)
same,GI50,[34],15.7 µM (inactive)
same,GI50,[35],25.6 µM (inactive)
same,GI50,[36],36.5 µM (inactive)
same,GI50,[37],19 µM (inactive)
same,GI50,[38],30.5 µM (inactive)
same,GI50,[39],3.1 µM (inactive)
same,GI50,[40],16 µM (inactive)
same,GI50,[41],20.2 µM (inactive)
same,GI50,[42],32.2 µM (inactive)
same,GI50,[43],6.46 µM (inactive)
same,GI50,[44],15 µM (inactive)
same,GI50,[45],18.8 µM (inactive)
same,GI50,[46],17.5 µM (inactive)
same,GI50,[47],> 100 µM (inactive)
same,GI50,[48],14.5 µM (inactive)
same,GI50,[49],46.9 µM (inactive)
same,GI50,[50],18.5 µM (inactive)
same,GI50,[51],3.1 µM (inactive)
same,GI50,[52],12.4 µM (inactive)
same,GI50,[53],14.1 µM (inactive)
same,GI50,[54],18.8 µM (inactive)
same,GI50,[55],28.3 µM (inactive)
same,GI50,[59],15.7 µM (inactive)
same,GI50,[56],14.1 µM (inactive)
same,GI50,[57],16.5 µM (inactive)
O=C(C/N=C(\CN(c1ccccc1)c1ccccc1)Oc1c(Cl)cc(Cl)cc1Cl)n1cnc2ccccc21,GI50,[1],> 100 µM (inactive)
same,GI50,[3],> 100 µM (inactive)
same,GI50,[4],78.2 µM (inactive)
same,GI50,[5],22.6 µM (inactive)
same,GI50,[7],33.8 µM (inactive)
same,GI50,[8],> 100 µM (inactive)
same,GI50,[9],> 100 µM (inactive)
same,GI50,[10],50.7 µM (inactive)
same,GI50,[58],71.6 µM (inactive)
same,GI50,[11],34 µM (inactive)
same,GI50,[12],43.8 µM
same,GI50,[13],32.7 µM (inactive)
same,GI50,[14],> 100 µM (inactive)
same,GI50,[15],59.6 µM (inactive)
same,GI50,[16],44.2 µM (inactive)
same,GI50,[17],> 100 µM (inactive)
same,GI50,[18],39.6 µM (inactive)
same,GI50,[19],80.7 µM (inactive)
same,GI50,[20],96.6 µM (inactive)
same,GI50,[22],> 100 µM (inactive)
same,GI50,[23],71 µM (inactive)
same,GI50,[24],74 µM (inactive)
same,GI50,[25],76.6 µM (inactive)
same,GI50,[26],59.8 µM (inactive)
same,GI50,[27],18.1 µM (inactive)
same,GI50,[28],52.6 µM (inactive)
same,GI50,[29],19.5 µM (inactive)
same,GI50,[30],> 100 µM (inactive)
same,GI50,[31],> 100 µM (inactive)
same,GI50,[32],84.1 µM (inactive)
same,GI50,[33],38.3 µM (inactive)
same,GI50,[34],32.5 µM (inactive)
same,GI50,[35],> 100 µM (inactive)
same,GI50,[36],28 µM (inactive)
same,GI50,[37],35.3 µM (inactive)
same,GI50,[38],27.5 µM (inactive)
same,GI50,[39],44.6 µM (inactive)
same,GI50,[40],< 0.01 µM (active)
same,GI50,[41],> 100 µM (inactive)
same,GI50,[42],> 100 µM (inactive)
same,GI50,[43],> 100 µM (inactive)
same,GI50,[44],> 100 µM (inactive)
same,GI50,[46],76 µM (inactive)
same,GI50,[47],> 100 µM (inactive)
same,GI50,[48],56.2 µM (inactive)
same,GI50,[49],> 100 µM (inactive)
same,GI50,[50],> 100 µM (inactive)
same,GI50,[51],33.9 µM (inactive)
same,GI50,[52],81.7 µM (inactive)
same,GI50,[53],33.3 µM (inactive)
same,GI50,[54],> 100 µM (inactive)
same,GI50,[55],82.6 µM (inactive)
same,GI50,[59],> 100 µM (inactive)
same,GI50,[56],32.3 µM (inactive)
